One assay concerns MRSA USA300 cells. Nature of the assay: Time-kill assay. It counts as cell-based. The method, then:
The time-kill analysis was performed as previously described^29. […] Aliquots (100 μL) were collected from each treatment after 0, 2, 4, 8, 12, and 24 hours of incubation at 37° C. and subsequently serially diluted in phosphate-buffered saline (PBS). Bacteria were then transferred to TSA plates and incubated at 37° C. for 18-20 hours before viable CFU/mL was determined (see FIG. 2).

The subject of assay [1] is C. difficile NR-32904 (P30). Nature of the assay: MIC against C. difficile NR-32904 (P30). It counts as cell-based. The conditions noted are these: Clostridioides difficile; read-out: MIC C. difficile NR-32904 (P30). The method, then:
(§1) Bacteria were cultured in cation-adjusted Mueller Hinton Broth (for strains in Tables 1-3) or Brain Heart Infusion broth (for Enterococcus faecium) or Tryptic Soy Broth (all other bacteria) in a 96-well plate at 37° C. for at least 20 hours. The MIC was classified as the lowest concentration where no visual growth of bacteria was observed. The minimum bactericidal concentration (MBC) was tested by spotting 4 μL from wells with no growth onto Tryptic Soy Agar (TSA) plates. Plates were incubated at 37° C. for at least 18 hours before recording the MBC.

Assay [2] deals with Neisseria gonorrhea strain 181. In words: MIC against Neisseria gonorrhea strain 181. It counts as cell-based. The procedure:
as §1

The subject of the next assay is C. difficile ATCC 43255. In words: MIC against C. difficile ATCC 43255. Conditions: Clostridioides difficile, ATCC43255; read-out: MIC C. difficile ATCC 43255. It counts as cell-based. The procedure:
as §1

The next assay has as its system MRSA ATCC 33592. Nature of the assay: MIC, broth microdilution, MRSA ATCC 33592. It counts as cell-based, methicillin-resistant S. aureus. Conditions: Staphylococcus aureus. The method, then: All MRSA isolates were acquired from BEI Resources. The remaining bacteria were purchased from the American Type Culture Collection (ATCC).
as §1
In general terms: Broth dilution looks for growth in wells or tubes with falling amounts of substance.

Assay [3] concerns C. difficile NR-13432 (isolate 6). In words: MIC against C. difficile NR-13432 (isolate 6). It counts as cell-based. Conditions: Clostridioides difficile; read-out: MIC C. difficile NR-13432 (isolate 6). The procedure: as §1
For the next assay, the system named is E. faecalis ATCC 29212. Nature of the assay: MIC, broth microdilution, E. faecalis ATCC 29212. The assay is classed as cell-based. The conditions noted are these: Enterococcus faecalis, ATCC29212. The method, then:
as §1

Assay [4] concerns C. difficile ATCC BAA 1801. Nature of the assay: MIC against C. difficile ATCC BAA 1801. The assay is classed as cell-based. Conditions: Clostridioides difficile, BAA1801; read-out: MIC C. difficile ATCC BAA 1801. The method, then:
as §1

A further assay relates to VRE ATCC 51575. In words: MIC, broth microdilution, VRE ATCC 51575. The conditions noted are these: Enterococcus. The assay is classed as cell-based. The method, then:
as §1

Assay [5] concerns L. monocytogenes ATCC 19115. Nature of the assay: MIC, broth microdilution, L. monocytogenes ATCC 19115. The assay is classed as cell-based. Conditions: Listeria monocytogenes, ATCC19115. The procedure: as §1
The test system of assay [6] is C. difficile NR-32895 (P19). Nature of the assay: MIC against C. difficile NR-32895 (P19). It counts as cell-based. The conditions noted are these: Clostridioides difficile; read-out: MIC C. difficile NR-32895 (P19). The procedure:
as §1

Assay [7] has as its system C. difficile NR-32891 (P13). In words: MIC against C. difficile NR-32891 (P13). Conditions: Clostridioides difficile; read-out: MIC C. difficile NR-32891 (P13). It counts as cell-based. The procedure: as §1
The test system of assay [8] is C. difficile NR-32883 (P2). Nature of the assay: MIC against C. difficile NR-32883 (P2). Conditions: Clostridioides difficile; read-out: MIC C. difficile NR-32883 (P2). It counts as cell-based. The procedure:
as §1

In assay [9] the test system is C. difficile NR-13435 (isolate 9). In words: MIC against C. difficile NR-13435 (isolate 9). The conditions noted are these: Clostridioides difficile; read-out: MIC C. difficile NR-13435 (isolate 9). The assay is classed as cell-based. The method, then:
as §1

The test system of a further assay is S. aureus. Nature of the assay: MIC, broth microdilution, S. aureus. It counts as cell-based. Conditions: Staphylococcus aureus. The method, then:
as §1

≈ marks a conversion by molar mass, not a printed value.

Regarding `CC(=O)NC[C@H]1CN(c2ccc(N3CCOCC3)c(F)c2)C(=O)O1` [Linezolid, reference compound], the Bactericidal/Bacteriostatic result in the assay on MRSA USA300 cells is “Bacteriostatic”. Further, in the assay with MRSA USA300 cells (MRSA USA300, 3× MIC or 6× MIC, up to 24 hours), the “Δlog2 CFU/mL” value was 1.7.

As a reminder, the MIC is the smallest concentration in the dilution series that meets the test's criterion for growth inhibition. On to `O=C(Nc1nnc(-c2ccc(Cl)s2)o1)c1ccc(SC(F)(F)F)cc1` [HSGN-210, N-(5-(5-chlorothiophen-2-yl)-1,3,4-oxadiazol-2-yl)-4-((trifluoromethyl)thio)benzamide], for which the MIC in [1] worked out at 0.06 µg/mL (≈ 0.148 µM); in assay [2] it was 0.5 µg/mL (≈ 1.23 µM); in the assay on C. difficile ATCC 43255, 0.007 µg/mL (≈ 0.0172 µM); in the assay on MRSA ATCC 33592, 0.25 µg/mL (≈ 0.616 µM); in assay [3], 0.015 µg/mL (≈ 0.037 µM); against E. faecalis ATCC 29212, 0.5 µg/mL (≈ 1.23 µM). Further, the MIC in assay [4] is 0.06 µg/mL (≈ 0.148 µM); in the assay on VRE ATCC 51575, 0.5 µg/mL (≈ 1.23 µM); in [5], 0.25 µg/mL (≈ 0.616 µM); in assay [6], 0.03 µg/mL (≈ 0.0739 µM); in assay [7], 0.06 µg/mL (≈ 0.148 µM); in [8] it was 0.003 µg/mL (≈ 0.00739 µM). Further, the MIC in assay [9] amounted to 0.003 µg/mL (≈ 0.00739 µM); against S. aureus, 0.25 µg/mL (≈ 0.616 µM).

With `O=C(Nc1nnc(-c2ccc(Cl)s2)o1)c1ccc(OC(F)(F)F)cc1` [HSGN-238, N-(5-(5-chlorothiophen-2-yl)-1,3,4-oxadiazol-2-yl)-4-(trifluoromethoxy)benzamide], the MIC in assay [1] stood at 0.015 µg/mL (≈ 0.0385 µM); in assay [2], 0.125 µg/mL (≈ 0.321 µM); in the assay with C. difficile ATCC 43255, 0.06 µg/mL (≈ 0.154 µM); with MRSA ATCC 33592, 0.25 µg/mL (≈ 0.641 µM); in assay [3], 0.03 µg/mL (≈ 0.077 µM); with E. faecalis ATCC 29212, 1 µg/mL (≈ 2.57 µM). In addition, the MIC in assay [4] came out at 0.03 µg/mL (≈ 0.077 µM); in the assay with VRE ATCC 51575 it was 1 µg/mL (≈ 2.57 µM); in assay [5], 0.5 µg/mL (≈ 1.28 µM); in [6] it was 0.015 µg/mL (≈ 0.0385 µM); in assay [7], 0.06 µg/mL (≈ 0.154 µM); in assay [8], 0.007 µg/mL (≈ 0.018 µM). Also, the MIC in [9] worked out at 0.015 µg/mL (≈ 0.0385 µM); in the assay with S. aureus it was 0.25 µg/mL (≈ 0.641 µM).

As to `O=C(Nc1nnc(-c2cccc(F)c2)o1)c1ccc(OC(F)(F)F)cc1` [HSGN-237, N-(5-(3-fluorophenyl)-1,3,4-oxadiazol-2-yl)-4-(trifluoromethoxy)benzamide], the MIC in assay [1] is 0.03 µg/mL (≈ 0.0817 µM); in [2], 0.125 µg/mL (≈ 0.34 µM); in the assay with C. difficile ATCC 43255, 0.03 µg/mL (≈ 0.0817 µM); against MRSA ATCC 33592 it was 0.5 µg/mL (≈ 1.36 µM); in [3], 0.06 µg/mL (≈ 0.163 µM); in the assay on E. faecalis ATCC 29212, 1 µg/mL (≈ 2.72 µM). Further, the MIC in [4] worked out at 0.06 µg/mL (≈ 0.163 µM); in the assay with VRE ATCC 51575, 1 µg/mL (≈ 2.72 µM); in assay [5], 0.5 µg/mL (≈ 1.36 µM); in assay [6], 0.03 µg/mL (≈ 0.0817 µM); in [7], 0.125 µg/mL (≈ 0.34 µM); in [8], 0.03 µg/mL (≈ 0.0817 µM). In addition, the MIC was 0.03 µg/mL (≈ 0.0817 µM) in assay [9] and 0.5 µg/mL (≈ 1.36 µM) in the assay on S. aureus.

Regarding `O=C(Nc1nnc(-c2ccc(F)cc2F)o1)c1ccc(SC(F)(F)F)cc1` [HSGN-219, N-(5-(2,4-difluorophenyl)-1,3,4-oxadiazol-2-yl)-4-((trifluoromethyl)thio)benzamide], the MIC turned out to be 0.06 µg/mL (≈ 0.15 µM) in assay [1]; 2 µg/mL (≈ 4.98 µM) in assay [2]; 0.06 µg/mL (≈ 0.15 µM) with C. difficile ATCC 43255; 0.5 µg/mL (≈ 1.25 µM) against MRSA ATCC 33592; 0.03 µg/mL (≈ 0.0748 µM) in assay [3]; 0.015 µg/mL (≈ 0.0374 µM) in assay [4]. Further, the MIC came to 0.06 µg/mL (≈ 0.15 µM) in assay [6]; 0.125 µg/mL (≈ 0.311 µM) in assay [7]; 0.003 µg/mL (≈ 0.00748 µM) in [8]; 0.007 µg/mL (≈ 0.0174 µM) in assay [9]; 0.5 µg/mL (≈ 1.25 µM) against S. aureus.

Consider `O=C(Nc1nnc(-c2cccc(Br)c2)o1)c1ccc(SC(F)(F)F)cc1` [HSGN-217, N-(5-(3-bromophenyl)-1,3,4-oxadiazol-2-yl)-4-((trifluoromethyl)thio)benzamide], for which the MIC is 0.125 µg/mL (≈ 0.281 µM) in assay [1]; 0.25 µg/mL (≈ 0.563 µM) in [2]; 0.06 µg/mL (≈ 0.135 µM) in the assay with C. difficile ATCC 43255; 0.5 µg/mL (≈ 1.13 µM) in the assay with MRSA ATCC 33592; 0.06 µg/mL (≈ 0.135 µM) in assay [3]; 0.06 µg/mL (≈ 0.135 µM) in [4]. In addition, the MIC was found to be 0.125 µg/mL (≈ 0.281 µM) in assay [6]; 0.125 µg/mL (≈ 0.281 µM) in [7]; 0.06 µg/mL (≈ 0.135 µM) in assay [8]; 0.06 µg/mL (≈ 0.135 µM) in assay [9]; 0.5 µg/mL (≈ 1.13 µM) in the assay on S. aureus.

Values taken from patent publication US20220249447A1, “CF3-, OCF3-, SCF3-, and SF5-Containing Antibacterial Agents” (Purdue Research Foundation, priority 2019, published 2022).
